According to PubChem BioAssay (NCI):
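96-well plates; 48 h exposure; 5 concentrations. Endpoints by linear interpolation between flanking doses. Not reached: highest tested concentration assigned. At the GI50, growth is halved. TGI is the concentration that stops growth completely.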

Tested on: MDA-MB-468 breast
Assay: NCI tumour cell line growth inhibition, 48 h

`Cc1cc2cc3cc(C)c(N(C)C)cc3[n+](C)c2cc1N(C)C` and `Cc1ccc2c(c1)c1nc3cc(C)c(C)cc3nc1n2CCN(C)C` are within 1.5-fold of each other in GI50: 0.95 µM for the first, 1.39 µM for the second.

Going from `C/C=C/C/C=C/CCC(=O)[C@H]1O[C@H]1C(N)=O` to `COc1cc2cc(C(=O)CCC(=O)O)sc2cc1OC`, the GI50 rises from 11.7 µM to > 100 µM.

Going from `CCOc1ccc(-c2cnnn2-c2nonc2-n2cccc2)cc1` to `CCOc1ccccc1NC(=O)c1cc2ccccc2cc1O`, the GI50 rises from 0.12 µM to 2.38 µM (20-fold).

Going from `Nc1ccccc1-c1ccc([N+](=O)[O-])cc1` to `O=c1ccc(N=Nc2ccc([N+](=O)[O-])cc2)ccc1O`, the GI50 falls from 13.4 µM to 3.8 µM (3.5-fold).

Compared with `O=S(=O)(Cc1ccc(Cl)cc1Cl)c1ccc(Cl)cc1`, `CN(Cc1ccc(Cl)cc1)c1ccc(CO)c(Cl)c1` is 4-fold lower in GI50: 0.265 µM for the first, 0.0657 µM for the second.

Going from `COc1cccc(C2C3=C(COC3=O)N(CCO)c3cc(OC)ccc32)c1` (stereo not given) to `COc1cc(C(=O)N2N=C(c3ccc(S(C)(=O)=O)cc3)CC2c2ccco2)cc(OC)c1OC` (stereo not given), the GI50 rises from 0.0365 µM to 2.49 µM (68-fold).

Going from `O=C1C2C(C(=O)[N]1[Hg][c]1cccs1)C1(Cl)C(Cl)=C(Cl)C2(Cl)C1(Cl)Cl` (stereo not given) to `Cn1cc(C2=C(c3cccc(N)c3)C(=O)NC2=O)c2ccccc21`, the GI50 rises from 1.25 µM to > 18.2 µM.

`COc1cc(-c2nc3sccn3c2-c2ccnc(NCCNS(=O)(=O)c3ccc(Cl)cc3)n2)ccc1F` and `CC(=O)N1N=C(c2ccc(Nc3nc(Nc4ccc(Cl)cc4)nc(Nc4ccc(Cl)cc4)n3)cc2)CC1c1ccc([N+](=O)[O-])cc1` (stereo not given) are within 1.5-fold of each other in GI50: 2.48 µM for the first, 3.08 µM for the second.

Compared with `Oc1ccccc1/C=N/Nc1nc(N/N=C/c2ccccc2O)nc(N2CCOCC2)n1`, `Clc1ccc(/C=C/c2cc(N3CCOCC3)c3cc(Cl)c(Cl)cc3n2)cc1` is higher in GI50: 4.11 µM for the first, > 100 µM for the second.

`O=C(Nc1ccc(F)cc1)Nc1ccccc1CNc1nc(Nc2ccc(OCCN3CCCC3)cc2)ncc1Cl` and `COc1ccc(C2CC(c3cccc(Nc4ccncc4)c3)=NN2c2ccc(Cl)cc2)cc1` (stereo not given) are within 1.5-fold of each other in GI50: 1.12 µM for the first, 1.45 µM for the second.

`Cn1cc(C2=C(c3cn(CCO)c4ccccc34)C(=O)NC2=O)c2ccccc21` and `O=c1c2ccccc2c(Br)c(Br)c2ccccc12` are within 1.5-fold of each other in GI50: 2.52 µM for the first, 2.74 µM for the second.

`N#Cc1ncc(-c2ccc(C(F)(F)F)cc2)c(NCc2cc(C(F)(F)F)cc(C(F)(F)F)c2)n1` and `N#Cc1cccc(OCc2nc(N)nc(N)c2-c2ccc(Cl)c(Cl)c2)c1` are within 1.5-fold of each other in GI50: 2.56 µM for the first, 3.08 µM for the second.

Compared with `CCN(CC)c1ccc(/C=C2/C[N+](C)(C)C/C(=C/c3ccc(N(CC)CC)cc3)C2=O)cc1`, `Cc1ccc(NC(=O)Cc2ccc(/C=C/C(=O)c3ncc[nH]3)cc2)cc1` is 2.5-fold higher in GI50: 1.32 µM for the first, 3.3 µM for the second.

`Cc1cc(NCCCNc2ccnc3cc(Cl)ccc23)nc(N2CCN(C)CC2)n1` and `CN(c1cc2ncc(=O)[nH]c2cc1NC(N)=NCc1ccc(Cl)cc1)C1CCCCC1` are within 1.5-fold of each other in GI50: 1.76 µM for the first, 1.23 µM for the second.

Going from `CC(C)[C@H]1CC[C@H]2[C@@H](CC[C@H]3[C@](C)(CN)CCC[C@]23C)C1` to `CCCCCc1nc2c(c3c1CCCC3)CCCC2`, the GI50 falls from 8.83 µM to 4.13 µM (2.1-fold).

`Clc1cc2c(cc1Cl)Oc1cc(Cl)c(Cl)cc1O2` and `CCCCCCc1cc2cc(-c3nc4ccccc4[nH]3)c(=Nc3ccccc3C)oc2cc1O` cannot be ordered by GI50: > 0.625 µM for the first, 1.82 µM for the second.

`CC(C)c1c(C(=O)Nc2ccccc2)c(-c2ccccc2)c(-c2ccc(F)cc2)n1CC[C@@H]1CC=CC(=O)O1` and `N#C/C(=N\Nc1ccc(Cl)cc1)C(=O)Nc1cc(-c2ccccc2)nn1-c1ccccc1` are within 1.5-fold of each other in GI50: 1.83 µM for the first, 1.84 µM for the second.

First: Cn1ccnc1C(=O)/C=C/c1ccc(C(=O)Nc2ccc(S(F)(F)(F)(F)F)cc2)cc1
Second: CC(=O)Nc1ccc(/C=C/C(=O)c2ccccc2)cc1
The GI50 of the first is 28-fold lower: 0.423 µM for the first, 11.7 µM for the second.

`Oc1ccc(CN2CCC(N3CCOCC3)CC2)c2cccnc12` and `CCCc1cc(O)c2c3c(c(=O)oc2c1)CN(C)CC3` are within 1.5-fold of each other in GI50: 22.6 µM for the first, 24.2 µM for the second.

First: CC/C(=C(/c1ccc(OCCN(C)C)cc1)c1ccc(OC(=O)CCC(=O)c2c(C)[nH]c(/C=C3\N=C(c4ccc[nH]4)C=C3OC)c2C)cc1)c1ccccc1
Second: CCN1/C(=C/C=C/c2n(-c3ccccc3)c3ccc(-c4nc5ccccc5s4)cc3[n+]2CC)N(c2ccccc2)c2ccc(-c3nc4ccccc4s3)cc21
The GI50 of the first is 10-fold higher: 2.9 µM for the first, 0.283 µM for the second.

First: CC(C)Nc1ccc(Nc2ccccc2)cc1
Second: c1ccc(C2CC(c3cccc(Nc4ccncc4)c3)=NN2c2ccccc2)cc1 (stereo not given)
The GI50 of the first is 3-fold higher: 4.45 µM for the first, 1.49 µM for the second.

Going from `O=c1c2c3c(sc2n2c(-c4cc(-c5ccccc5)no4)nnc2n1Cc1ccccc1)CCCC3` to `N/C(=C\C(=O)n1nc(-c2ccccc2)cc1N)c1ccccc1`, the GI50 falls from 14.6 µM to 5.54 µM (2.6-fold).

For `O=C(CSc1nc2sc3c(c2c(=O)n1-c1ccc(Cl)cc1)CCCC3)NNC(=O)Nc1ccc(Cl)c(C(F)(F)F)c1`, the GI50 was 1.55 µM.

First: Cc1cc2cc3cc(C)c(N(C)C)cc3[n+](C)c2cc1N(C)C
Second: Cc1ccc2c(c1)c1nc3cc(C)c(C)cc3nc1n2CCN(C)C
The TGI of the first is 3.8-fold higher: 13.5 µM for the first, 3.54 µM for the second.

Compared with `C/C=C/C/C=C/CCC(=O)[C@H]1O[C@H]1C(N)=O`, `COc1cc2cc(C(=O)CCC(=O)O)sc2cc1OC` is higher in TGI: 25.9 µM for the first, > 100 µM for the second.

First: CCOc1ccc(-c2cnnn2-c2nonc2-n2cccc2)cc1
Second: CCOc1ccccc1NC(=O)c1cc2ccccc2cc1O
The TGI of the first is 15-fold lower: 0.495 µM for the first, 7.18 µM for the second.

Going from `Nc1ccccc1-c1ccc([N+](=O)[O-])cc1` to `O=c1ccc(N=Nc2ccc([N+](=O)[O-])cc2)ccc1O`, the TGI falls from > 100 µM to 81.2 µM.

Compared with `O=S(=O)(Cc1ccc(Cl)cc1Cl)c1ccc(Cl)cc1`, `CN(Cc1ccc(Cl)cc1)c1ccc(CO)c(Cl)c1` is 10-fold lower in TGI: 2.19 µM for the first, 0.219 µM for the second.

Compared with `COc1cccc(C2C3=C(COC3=O)N(CCO)c3cc(OC)ccc32)c1` (stereo not given), `COc1cc(C(=O)N2N=C(c3ccc(S(C)(=O)=O)cc3)CC2c2ccco2)cc(OC)c1OC` (stereo not given) is higher in TGI: 1.26 µM for the first, > 26 µM for the second.

First: O=C1C2C(C(=O)[N]1[Hg][c]1cccs1)C1(Cl)C(Cl)=C(Cl)C2(Cl)C1(Cl)Cl (stereo not given)
Second: Cn1cc(C2=C(c3cccc(N)c3)C(=O)NC2=O)c2ccccc21
The TGI of the first is lower: 2.7 µM for the first, > 25 µM for the second.

`COc1cc(-c2nc3sccn3c2-c2ccnc(NCCNS(=O)(=O)c3ccc(Cl)cc3)n2)ccc1F` and `CC(=O)N1N=C(c2ccc(Nc3nc(Nc4ccc(Cl)cc4)nc(Nc4ccc(Cl)cc4)n3)cc2)CC1c1ccc([N+](=O)[O-])cc1` (stereo not given) cannot be ordered by TGI: > 100 µM for the first, > 100 µM for the second.

Going from `Oc1ccccc1/C=N/Nc1nc(N/N=C/c2ccccc2O)nc(N2CCOCC2)n1` to `Clc1ccc(/C=C/c2cc(N3CCOCC3)c3cc(Cl)c(Cl)cc3n2)cc1`, the TGI rises from 35.9 µM to > 100 µM.

`O=C(Nc1ccc(F)cc1)Nc1ccccc1CNc1nc(Nc2ccc(OCCN3CCCC3)cc2)ncc1Cl` and `COc1ccc(C2CC(c3cccc(Nc4ccncc4)c3)=NN2c2ccc(Cl)cc2)cc1` (stereo not given) are within 1.5-fold of each other in TGI: 2.89 µM for the first, 2.95 µM for the second.

`Cn1cc(C2=C(c3cn(CCO)c4ccccc34)C(=O)NC2=O)c2ccccc21` and `O=c1c2ccccc2c(Br)c(Br)c2ccccc12` are within 1.5-fold of each other in TGI: 10.8 µM for the first, 9.55 µM for the second.

Compared with `N#Cc1ncc(-c2ccc(C(F)(F)F)cc2)c(NCc2cc(C(F)(F)F)cc(C(F)(F)F)c2)n1`, `N#Cc1cccc(OCc2nc(N)nc(N)c2-c2ccc(Cl)c(Cl)c2)c1` is higher in TGI: 7.38 µM for the first, > 100 µM for the second.

First: CCN(CC)c1ccc(/C=C2/C[N+](C)(C)C/C(=C/c3ccc(N(CC)CC)cc3)C2=O)cc1
Second: Cc1ccc(NC(=O)Cc2ccc(/C=C/C(=O)c3ncc[nH]3)cc2)cc1
The TGI of the first is 6.6-fold lower: 3.57 µM for the first, 23.4 µM for the second.

`Cc1cc(NCCCNc2ccnc3cc(Cl)ccc23)nc(N2CCN(C)CC2)n1` and `CN(c1cc2ncc(=O)[nH]c2cc1NC(N)=NCc1ccc(Cl)cc1)C1CCCCC1` are within 1.5-fold of each other in TGI: 5.97 µM for the first, 4.42 µM for the second.

`CC(C)[C@H]1CC[C@H]2[C@@H](CC[C@H]3[C@](C)(CN)CCC[C@]23C)C1` and `CCCCCc1nc2c(c3c1CCCC3)CCCC2` are within 1.5-fold of each other in TGI: 23.5 µM for the first, 18.1 µM for the second.

`Clc1cc2c(cc1Cl)Oc1cc(Cl)c(Cl)cc1O2` and `CCCCCCc1cc2cc(-c3nc4ccccc4[nH]3)c(=Nc3ccccc3C)oc2cc1O` cannot be ordered by TGI: > 0.625 µM for the first, 3.74 µM for the second.

Compared with `CC(C)c1c(C(=O)Nc2ccccc2)c(-c2ccccc2)c(-c2ccc(F)cc2)n1CC[C@@H]1CC=CC(=O)O1`, `N#C/C(=N\Nc1ccc(Cl)cc1)C(=O)Nc1cc(-c2ccccc2)nn1-c1ccccc1` is 1.6-fold higher in TGI: 3.82 µM for the first, 5.93 µM for the second.

Compared with `Cn1ccnc1C(=O)/C=C/c1ccc(C(=O)Nc2ccc(S(F)(F)(F)(F)F)cc2)cc1`, `CC(=O)Nc1ccc(/C=C/C(=O)c2ccccc2)cc1` is 1.9-fold higher in TGI: 13.8 µM for the first, 26 µM for the second.

`Oc1ccc(CN2CCC(N3CCOCC3)CC2)c2cccnc12` and `CCCc1cc(O)c2c3c(c(=O)oc2c1)CN(C)CC3` are within 1.5-fold of each other in TGI: 60.6 µM for the first, 85.2 µM for the second.

Compared with `CC/C(=C(/c1ccc(OCCN(C)C)cc1)c1ccc(OC(=O)CCC(=O)c2c(C)[nH]c(/C=C3\N=C(c4ccc[nH]4)C=C3OC)c2C)cc1)c1ccccc1`, `CCN1/C(=C/C=C/c2n(-c3ccccc3)c3ccc(-c4nc5ccccc5s4)cc3[n+]2CC)N(c2ccccc2)c2ccc(-c3nc4ccccc4s3)cc21` is higher in TGI: 14 µM for the first, > 50 µM for the second.

Going from `CC(C)Nc1ccc(Nc2ccccc2)cc1` to `c1ccc(C2CC(c3cccc(Nc4ccncc4)c3)=NN2c2ccccc2)cc1` (stereo not given), the TGI falls from 19.7 µM to 3.02 µM (6.5-fold).

`O=c1c2c3c(sc2n2c(-c4cc(-c5ccccc5)no4)nnc2n1Cc1ccccc1)CCCC3` and `N/C(=C\C(=O)n1nc(-c2ccccc2)cc1N)c1ccccc1` are within 1.5-fold of each other in TGI: 43.8 µM for the first, 56.3 µM for the second.

`O=C(CSc1nc2sc3c(c2c(=O)n1-c1ccc(Cl)cc1)CCCC3)NNC(=O)Nc1ccc(Cl)c(C(F)(F)F)c1` was tested, and the TGI was 3.66 µM.
